This is an account of results in patent EP4803513A1, “SUBSTITUTED QUINAZOLINE COMPOUND, PREPARATION METHOD THEREFOR, PHARMACEUTICAL COMBINATION THEREOF, AND USE THEREOF” (Hongyun Biotech Co., Ltd., priority 2023, dated 2025).

Structures are written as SMILES. Some results are limits rather than exact numbers.

The subject of test [1] is BRK-BaF3 cells. The test is described as follows: Cell antiproliferative activity assay (CCK-8), BRK-BaF3. The format is cell-based. The conditions noted are these: 72 h, CCK-8, 3 days incubation. The gist of the method: (§1)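 Growth inhibition over 3 days, with compound serially diluted 3-fold from a 10 µM top concentration. Cells seeded at 100,000 cells/mL; WT-BaF3 medium carried 10% WEHI supernatant as the IL-3 source. Viability read by CCK-8 OD450 after 2-4 h; IC50 from blank-subtracted curve fit.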

The test system of test [2] is GA6208. The test is described as follows: In vitro activity test of gastric cancer PDX (CellTiter-Glo), GA6208. Type of test: cell-based. The following applies: PDX GA6208, gastric cancer with high BRK expression, 168 hours. As to the method:
(§2) Patient-derived xenograft (PDX) models are methods in which tumor tissue from cancer patients is transplanted into severely immunodeficient mice for culture and passaging, and used to test compound activity. The compounds of the present invention were tested using three PDX samples (GA0119, GA6208, and GA6871, all being gastric cancers with high BRK expression, all cultured in DMEM).
(§3) Preparation of PDX model tumor cell suspension: PDX model animals were housed in the animal facility, and tumor growth was observed weekly. When the PDX model tumor grew to an appropriate size, the tumor was removed and minced using sterile surgical instruments. Collagenase B digestion solution was added, and digestion was performed at 37°C for approximately 2 hours. Undigested tissue was removed by passing through a cell strainer. The strainer was washed with PBS 3-5 times, and the cell pellet was washed with PBS 4 times. Tumor cells were resuspended in culture medium. ACK lysis buffer was used to remove red blood cells when necessary.
(§4) Cell plating: The above cell suspension was taken and counted. The cell suspension concentration was adjusted to 5.75 × 10^5 cells/mL by dilution with culture medium. 3.5 mL of the cell suspension and 6.5 mL of 1% methylcellulose solution were mixed thoroughly. 100 µL of the cell suspension was added to each well of a 96-well plate (including compound-treated cell plates and T0 control cell plates), followed by incubation overnight under conditions of 37°C, 5% CO2, and 95% humidity.
(§5) Day 0 cell viability reading: The CellTiter-Glo® reagent and T0 control cell culture plate were equilibrated at room temperature for 30 minutes. 100 µL of CellTiter-Glo® reagent was added to each well. The plate was shaken on an orbital shaker for 20 minutes to ensure complete cell lysis. The cell culture plate was then equilibrated at room temperature for 10 minutes, and the chemiluminescence signal was read using an EnVision plate reader.
(§6) Day 0 compound treatment: The test compound (stock concentration 10 mM) was taken out and equilibrated at room temperature for use. The compound treatment cell plate was taken out. The test compound solution was added to the corresponding wells. The highest concentration for each compound was 30 µM, with 3-fold serial dilutions, 9 concentration points, each concentration point in triplicate (DMSO concentration normalized). The final concentration of DMSO in each cell well was 0.3%. The dosed 96-well plate was then placed in an incubator at 37°C, 5% CO2, and 95% humidity for continued culture for 168 hours.
(§7) Day 7 cell viability reading: The CellTiter-Glo® reagent and cell culture plate were equilibrated at room temperature for 30 minutes. 100 µL of CellTiter-Glo® reagent was added to each well. The plate was shaken on an orbital shaker for 20 minutes to lyse the cells. The cell plate was then placed at room temperature for 10 minutes to stabilize the luminescence signal, and the luminescence value was read using an EnVision plate reader.
(§8) Data processing: Data were analyzed using GraphPad Prism 9.0 software. A nonlinear sigmoidal curve regression was used to fit the data and generate a dose-response curve, from which the IC50 value was calculated. Cell survival rate (%) = (Lumtest compound - Lummedium control) / (Lumcell control - Lummedium control) × 100%. Lum represents the luminescence value.

Test [3] deals with WT-BaF3 cells. The test is described as follows: Cell antiproliferative activity assay (CCK-8), WT-BaF3 (broad-spectrum cytotoxicity). Type of test: cell-based. The conditions noted are these: 72 h; WT-BaF3 cells (IL-3 supplemented), CCK-8, 3 days incubation. The gist of the method: as §1
Test [4] deals with GA0119. The test is described as follows: In vitro activity test of gastric cancer PDX (CellTiter-Glo), GA0119. The format is cell-based. The following applies: PDX GA0119, gastric cancer with high BRK expression, 168 hours. As to the method: as §2, §3, §4, §5
Day 0 compound treatment: The test compound (stock concentration 10 mM) was taken out and equilibrated at room temperature for use. The compound treatment cell plate was taken out. The test compound solution was added to the corresponding wells. […]
Day 7 cell viability reading: The CellTiter-Glo® reagent and cell culture plate were equilibrated at room temperature for 30 minutes. […] The cell plate was then placed at room temperature for 10 minutes to stabilize the luminescence signal, and the luminescence value was read using an EnVision plate reader.
Data processing: Data were analyzed using GraphPad Prism 9.0 software. A nonlinear sigmoidal curve regression was used to fit the data and generate a dose-response curve, from which the IC50 value was calculated. […] Lum represents the luminescence value.
(Cellular ATP, detected with luciferase, serves as a proxy for viable cell number.)

The subject of test [5] is GA6871. The test is described as follows: In vitro activity test of gastric cancer PDX (CellTiter-Glo), GA6871. The format is cell-based. The conditions noted are these: PDX GA6871, gastric cancer with high BRK expression, 168 hours. The protocol:
as §2, §3, §4, §5, §6, §7, §8

In test [6] the test system is gastric cancer xenograft model GA6208. Description: In vivo efficacy evaluation of gastric cancer PDX (GA6208). Set-up: species or system Balb/c nude mice. The text has this:
Tumor tissue was collected from tumor-bearing mice of the gastric cancer xenograft model GA6208, cut into tumor pieces of 2-3 mm in diameter, and subcutaneously inoculated at the right front scapular region of Balb/c nude mice. When the mean tumor volume of the tumor-bearing mice reached approximately 150 mm^3 (100-200 mm^3), the mice were randomly divided into 4 groups of 8 mice each, and administered as follows: vehicle control (0.5% CMC-Na solution, oral gavage, twice daily), compound I-21 (100 mg/kg, oral gavage, twice daily), compound I-81 (100 mg/kg for the first 8 days, then 80 mg/kg for the subsequent 27 days, oral gavage, twice daily), and cisplatin (3 mg/kg, tail vein injection, once weekly), for a total of 35 days.

As a reminder, the IC50 is the concentration that gives 50% inhibition. Higher therefore signals weaker potency. `Cc1nn(CCO)cc1Nc1ncc2cc(-c3nccnc3C)cc(C(C)C)c2n1` [I-81]: the IC50 in test [1] was at most 0.02 µM; in test [2] it was 3.92 µM; in test [3], over 2.5 µM; in test [4] it was 4.54 µM; in test [5] it was 7.13 µM. Moreover, in test [6] (I-21 100 mg/kg oral gavage twice daily, I-81 100/80 mg/kg oral gavage twice daily, cisplatin 3 mg/kg tail vein once weekly, in mm³ (unit assumed)), the “Day 35 tumor volume (mean ± SEM)” value is 595.03±30.63. In addition, the “Day 35 TGI (%)” value in test [6] (tumor growth inhibition vs vehicle control, same dosing as tumor volume) stood at 57.89%.
